Data published in US20090131481A1, “Transcription Factor Modulating Compounds and Methods of Use Thereof” (Paratek Pharmaceuticals, Inc., published 2009).
pEC50: −log10 of the molar value. Where two headings read alike, the source gives them in different places.

What was measured:
SoxS = target: T1, SoxS (Escherichia coli, UniProt P0A9E2); assay: Chemiluminescence-based SoxS-DNA binding assay; parameters: made in house; species or system E. coli; conditions: for pEC50: dose response analysis (footnote c), read-out: in vitro SoxS activity: concentration necessary to inhibit DNA-protein binding by 50% (EC50); for inhibition at 25 µg/mL: compound screening concentration of 25 μg/ml (footnote d)
T1 sequence (P0A9E2 1-107): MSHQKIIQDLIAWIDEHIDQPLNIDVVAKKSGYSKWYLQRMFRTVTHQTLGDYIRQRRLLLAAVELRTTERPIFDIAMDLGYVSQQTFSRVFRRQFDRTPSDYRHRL

E. coli UPEC strain C189 = assay: Ascending pyelonephritis model of infection (Example 3); assay type: in vivo; conditions: female CD1 mice, oral dosing at infection and once a day for 4 days, 5-day infection
LcrF (VirF) = LcrF (VirF) (Yersinia pestis, UniProt P28808); assay: biochemical; assay type: binding, Y. pseudotuberculosis; conditions: EC50 for inhibition of LcrF(VirF)-DNA binding
Sequence of LcrF (VirF) (P28808 whole entry, looked up): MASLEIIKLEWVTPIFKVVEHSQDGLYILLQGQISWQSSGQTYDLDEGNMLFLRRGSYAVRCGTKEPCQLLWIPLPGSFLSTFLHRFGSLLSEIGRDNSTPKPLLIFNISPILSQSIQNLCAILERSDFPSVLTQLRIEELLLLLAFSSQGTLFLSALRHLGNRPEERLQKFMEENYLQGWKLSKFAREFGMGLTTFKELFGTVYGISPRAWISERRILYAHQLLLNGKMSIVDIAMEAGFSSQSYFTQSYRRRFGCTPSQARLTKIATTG

Y. pseudotuberculosis = assay: microbe, parasite or virus in culture; conditions: Yersinia pseudotuberculosis, J774, read-out: % Cytotoxicity
ExsA = target: T2, ExsA (Pseudomonas aeruginosa, UniProt P26993); assay: Chemiluminescence-based ExsA-DNA binding assay; parameters: species or system P. aeruginosa; conditions: Table 7, cell-free system; read-out: ExsA EC50
T2 construct: made in house
T2 sequence (P26993 1-278): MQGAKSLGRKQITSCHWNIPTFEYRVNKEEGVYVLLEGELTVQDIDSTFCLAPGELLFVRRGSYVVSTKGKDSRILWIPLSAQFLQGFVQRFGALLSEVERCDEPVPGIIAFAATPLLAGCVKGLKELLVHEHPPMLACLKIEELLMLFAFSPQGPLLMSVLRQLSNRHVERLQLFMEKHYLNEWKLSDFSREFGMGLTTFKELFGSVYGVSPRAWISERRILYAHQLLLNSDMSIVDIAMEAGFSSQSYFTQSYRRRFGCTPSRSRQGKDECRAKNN

P. aeruginosa = P. aeruginosa cytotoxicity whole cell assay (J774 cells, LDH release); conditions: relative to vehicle treated cells infected with wild type P. aeruginosa
[1] = read-out: % Inhibition (SoxS binding to DNA)
[2] = read-out: in vitro SoxS activity: percent inhibition of DNA-protein binding

Structure (SMILES) | pEC50 (LcrF (VirF)) | activity at 50 µg/mL (Y. pseudotuberculosis) [%] | pEC50 (ExsA) | Cytotoxicity at 50 μg/mL Pseudomonas (P. aeruginosa) | other results
O=C(O)Cn1c(-c2nc3ccc([N+](=O)[O-])cc3n2O)nc2ccccc21 [BS] |  |  |  |  | pEC50 (SoxS): 5.31 to 6.00; Efficacy (log10 decrease in the CFU/g kidney tissue) (E. coli UPEC strain C189): *** (exhibited a 0-1.0 log decrease in CFU/g)
CC(=O)Nc1cccc(-c2nc3ccc([N+](=O)[O-])cc3n2O)c1 [BT] |  |  |  |  | inhibition at 50 µg/mL (SoxS; [1]): 30 to 69%
O=C(O)c1cccc(-c2nc3ccc([N+](=O)[O-])cc3n2O)c1 [BU] |  |  |  |  | pEC50 (SoxS): < 5.30; Efficacy (log10 decrease in the CFU/g kidney tissue) (E. coli UPEC strain C189): *** (exhibited a 0-1.0 log decrease in CFU/g)
CN(C)c1cccc(-c2nc3ccc([N+](=O)[O-])cc3n2O)c1 [BV] |  |  |  |  | inhibition at 50 µg/mL (SoxS; [1]): 0 to 29%
O=[N+]([O-])c1ccc2nc(-c3ccc(Oc4ccccc4)cc3)n(O)c2c1 [BW] |  |  |  |  | inhibition at 50 µg/mL (SoxS; [1]): 0 to 29%
O=[N+]([O-])c1ccc2nc(-c3ccc(Br)cc3)n(O)c2c1 [CA] |  |  |  |  | inhibition at 50 µg/mL (SoxS; [1]): 0 to 29%
O=C(NCc1ccc(-c2nc3ccc([N+](=O)[O-])cc3n2O)cc1)c1ccccc1 [CD] |  |  |  |  | inhibition at 50 µg/mL (SoxS; [1]): 30 to 69%
O=C(Nc1ccc(-c2nc3ccc([N+](=O)[O-])cc3n2O)cc1)c1ccc(Cl)cc1 [CE] |  |  |  |  | inhibition at 25 µg/mL (SoxS; [2]): > 70%
O=C(Nc1ccc(-c2nc3ccc([N+](=O)[O-])cc3n2O)cc1)c1cccc(Cl)c1 [CG] |  |  |  |  | pEC50 (SoxS): 5.31 to 6.00
CC(=O)Nc1ccc(-c2nc3ccc([N+](=O)[O-])cc3n2O)cc1 [CH] |  |  |  |  | inhibition at 50 µg/mL (SoxS; [1]): > 70%
CC(C)(C)C(=O)Nc1ccc(-c2nc3ccc([N+](=O)[O-])cc3n2O)cc1 [CK] |  |  |  |  | inhibition at 25 µg/mL (SoxS; [2]): > 70%; Efficacy (log10 decrease in the CFU/g kidney tissue) (E. coli UPEC strain C189): *** (exhibited a 0-1.0 log decrease in CFU/g)
CC(=O)c1ccc(C(=O)Nc2ccc(-c3nc4ccc([N+](=O)[O-])cc4n3O)nc2)cc1 [DR] | < 4.60 | < 75 | 4.60 to 5.00 | * (reduced P. aeruginosa cytotoxicity to 99-75% of untreated, wild type levels at 50 mg/mL) | 
O=C(Nc1ccc(-c2nc3ccc([N+](=O)[O-])cc3n2O)c(F)c1)c1ccc(F)cc1 [DS] | 4.60 to 5.00 | < 75 | 4.60 to 5.00 | * (reduced P. aeruginosa cytotoxicity to 99-75% of untreated, wild type levels at 50 mg/mL) | 
COc1cc(NC(=O)c2ccc(F)cc2)ccc1-c1nc2ccc([N+](=O)[O-])cc2n1O [DT] | < 4.60 | < 75 | 4.60 to 5.00 | * (reduced P. aeruginosa cytotoxicity to 99-75% of untreated, wild type levels at 50 mg/mL) | 
O=C(Nc1ccc(-c2nc3ccc([N+](=O)[O-])cc3n2O)cn1)c1ccc(F)cc1 [DU] | 4.60 to 5.00 | < 75 | 4.60 to 5.00 | * (reduced P. aeruginosa cytotoxicity to 99-75% of untreated, wild type levels at 50 mg/mL) | 
O=C(/C=C/c1ccc(F)c(CP(=O)(O)O)c1)Nc1ccc(-c2nc3ccc([N+](=O)[O-])cc3n2O)cc1 [DX] | 4.60 to 5.00 | < 75 | 4.60 to 5.00 | * (reduced P. aeruginosa cytotoxicity to 99-75% of untreated, wild type levels at 50 mg/mL) | 
Cc1ccc(C(=O)Nc2ccc(-c3nc4ccc([N+](=O)[O-])cc4n3O)cc2)cc1 [D] | 4.60 to 5.00 | < 75 | > 5.00 |  | pEC50 (SoxS): 5.31 to 6.00
CCOP(=O)(COn1c(-c2ccc(NC(=O)/C=C/c3ccc(F)cc3)cc2)nc2ccc([N+](=O)[O-])cc21)OCC [ED, (2-{4-[(E)-3-(4-Fluoro-phenyl)-acrloylamino]-phenyl}-6-nitro-benzoimidazol-1-yloxymethyl)-phosphonic acid diethyl ester] | < 4.60 | < 75 | > 5.00 | * (reduced P. aeruginosa cytotoxicity to 99-75% of untreated, wild type levels at 50 mg/mL) | 
O=C(/C=C/c1ccc(F)cc1)Nc1ccc(-c2nc3ccc([N+](=O)[O-])cc3n2O)cc1F [EL, (E)-N-[2-Fluoro-4-(1-hydroxy-6-nitro-1H-benzoimidazol-2-yl)-phenyl]-3-(4-fluoro-phenyl)-acrylamide] | 4.60 to 5.00 | < 75 | 4.60 to 5.00 | * (reduced P. aeruginosa cytotoxicity to 99-75% of untreated, wild type levels at 50 mg/mL) | 
COc1cc(NC(=O)c2ccc(C(C)=O)cc2)ccc1-c1nc2ccc([N+](=O)[O-])cc2n1O [ES] | < 4.60 | < 75 | 4.60 to 5.00 | ** (reduced P. aeruginosa cytotoxicity below 75% of untreated, wild type levels at 50 mg/mL) | 
COc1cc(NC(=O)/C=C/c2ccc(F)cc2)ccc1-c1nc2ccc([N+](=O)[O-])cc2n1O [ET] | 4.60 to 5.00 | < 75 | 4.60 to 5.00 | * (reduced P. aeruginosa cytotoxicity to 99-75% of untreated, wild type levels at 50 mg/mL) | 
O=C(Nc1ccc(-c2nc3ccc([N+](=O)[O-])cc3n2O)cc1)C1=Cc2ccccc2OC1 [EY] | 4.60 to 5.00 | < 75 | 4.60 to 5.00 | * (reduced P. aeruginosa cytotoxicity to 99-75% of untreated, wild type levels at 50 mg/mL) | 
CN(C)c1cc2nc(-c3ccc(NC(=O)/C=C/c4ccc(F)cc4)cc3)n(O)c2cc1[N+](=O)[O-] [EZ, N-[4-(5-Dimethylamino-1-hydroxy-6-nitro-1H-benzoimidazol-2-yl)-phenyl]-3-(4-fluorocinnamyl)-amide] | < 4.60 | 75 to 99 | 4.60 to 5.00 | ** (reduced P. aeruginosa cytotoxicity below 75% of untreated, wild type levels at 50 mg/mL) | 
N#Cc1ccc(C(=O)Nc2ccc(-c3nc4ccc([N+](=O)O)cc4n3O)cc2)cc1 [E] | 4.60 to 5.00 | < 75 | 4.60 to 5.00 |  | Efficacy (log10 decrease in the CFU/g kidney tissue) (E. coli UPEC strain C189): ** (exhibited a 1.1-2.0 log decrease in CFU/g)
O=[N+]([O-])c1ccc2nc(-c3ccccc3)n(O)c2c1 [GB] |  |  |  |  | inhibition at 50 µg/mL (SoxS; [1]): 30 to 69%
Cc1ccc(-c2nc3ccc([N+](=O)[O-])cc3n2O)o1 [GC] |  |  |  |  | inhibition at 50 µg/mL (SoxS; compound screening concentration of 50 μg/ml (footnote b), read-out: in vitro SoxS activity: percent inhibition of DNA-protein binding): 30 to 69%; Efficacy (log10 decrease in the CFU/g kidney tissue) (E. coli UPEC strain C189): ** (exhibited a 1.1-2.0 log decrease in CFU/g)
